{"source": "patent US11179364B2", "about": "“Licofligozin for the treatment of non-alcoholic steatohepatitis” (NOVARTIS AG, priority 2017, dated 2021)", "key": {"[1]": {"biological_target": "T1, SGLT2 (Homo sapiens, UniProt P31639)", "T1 sequence (P31639 1-672)": "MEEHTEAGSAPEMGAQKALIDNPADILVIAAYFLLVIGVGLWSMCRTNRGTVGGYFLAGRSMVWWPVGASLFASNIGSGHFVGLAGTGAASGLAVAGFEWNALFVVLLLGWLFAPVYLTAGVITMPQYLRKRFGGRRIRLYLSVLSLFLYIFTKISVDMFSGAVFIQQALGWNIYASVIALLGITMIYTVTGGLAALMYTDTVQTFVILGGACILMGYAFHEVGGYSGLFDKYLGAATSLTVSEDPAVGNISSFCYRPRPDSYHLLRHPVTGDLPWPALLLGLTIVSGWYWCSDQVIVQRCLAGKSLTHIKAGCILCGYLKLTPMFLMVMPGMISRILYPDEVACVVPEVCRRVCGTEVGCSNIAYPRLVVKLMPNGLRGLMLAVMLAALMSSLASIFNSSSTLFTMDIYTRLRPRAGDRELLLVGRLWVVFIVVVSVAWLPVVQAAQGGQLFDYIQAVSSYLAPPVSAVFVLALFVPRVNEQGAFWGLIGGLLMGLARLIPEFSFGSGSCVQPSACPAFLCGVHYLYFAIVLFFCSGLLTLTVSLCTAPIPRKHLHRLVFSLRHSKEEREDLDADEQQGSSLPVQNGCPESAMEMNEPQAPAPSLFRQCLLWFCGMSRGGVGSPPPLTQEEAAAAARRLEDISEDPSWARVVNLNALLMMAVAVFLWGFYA", "test": "SGLT2 inhibition", "assay_type": "biochemical"}, "[2]": {"biological_target": "T2, SGLT1 (Homo sapiens, UniProt P13866)", "T2 sequence (P13866 1-664)": "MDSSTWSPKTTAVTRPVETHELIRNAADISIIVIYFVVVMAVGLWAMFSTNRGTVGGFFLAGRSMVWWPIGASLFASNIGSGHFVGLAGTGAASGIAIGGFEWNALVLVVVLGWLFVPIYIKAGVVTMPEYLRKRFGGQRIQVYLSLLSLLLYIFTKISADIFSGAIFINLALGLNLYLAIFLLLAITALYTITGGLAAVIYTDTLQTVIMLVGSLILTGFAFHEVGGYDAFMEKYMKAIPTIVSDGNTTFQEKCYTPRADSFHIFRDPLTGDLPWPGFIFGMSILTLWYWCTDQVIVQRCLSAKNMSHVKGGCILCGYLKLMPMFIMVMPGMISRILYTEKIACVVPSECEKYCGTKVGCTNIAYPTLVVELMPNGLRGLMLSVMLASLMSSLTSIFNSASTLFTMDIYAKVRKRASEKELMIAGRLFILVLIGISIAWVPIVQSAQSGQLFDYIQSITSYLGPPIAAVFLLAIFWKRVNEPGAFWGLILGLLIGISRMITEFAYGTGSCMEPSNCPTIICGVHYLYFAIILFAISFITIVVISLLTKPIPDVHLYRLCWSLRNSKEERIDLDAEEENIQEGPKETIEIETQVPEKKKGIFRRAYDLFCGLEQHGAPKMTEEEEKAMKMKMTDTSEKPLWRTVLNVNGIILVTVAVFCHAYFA", "test": "SGLT1 inhibition", "assay_type": "biochemical"}, "[3]": {"system": "other glucose transporters (GLUTs)", "test": "Selectivity against other glucose transporters", "assay_type": "biochemical"}, "[4]": {"biological_target": "hERG (Homo sapiens, UniProt Q12809)", "sequence (Q12809 whole entry)": "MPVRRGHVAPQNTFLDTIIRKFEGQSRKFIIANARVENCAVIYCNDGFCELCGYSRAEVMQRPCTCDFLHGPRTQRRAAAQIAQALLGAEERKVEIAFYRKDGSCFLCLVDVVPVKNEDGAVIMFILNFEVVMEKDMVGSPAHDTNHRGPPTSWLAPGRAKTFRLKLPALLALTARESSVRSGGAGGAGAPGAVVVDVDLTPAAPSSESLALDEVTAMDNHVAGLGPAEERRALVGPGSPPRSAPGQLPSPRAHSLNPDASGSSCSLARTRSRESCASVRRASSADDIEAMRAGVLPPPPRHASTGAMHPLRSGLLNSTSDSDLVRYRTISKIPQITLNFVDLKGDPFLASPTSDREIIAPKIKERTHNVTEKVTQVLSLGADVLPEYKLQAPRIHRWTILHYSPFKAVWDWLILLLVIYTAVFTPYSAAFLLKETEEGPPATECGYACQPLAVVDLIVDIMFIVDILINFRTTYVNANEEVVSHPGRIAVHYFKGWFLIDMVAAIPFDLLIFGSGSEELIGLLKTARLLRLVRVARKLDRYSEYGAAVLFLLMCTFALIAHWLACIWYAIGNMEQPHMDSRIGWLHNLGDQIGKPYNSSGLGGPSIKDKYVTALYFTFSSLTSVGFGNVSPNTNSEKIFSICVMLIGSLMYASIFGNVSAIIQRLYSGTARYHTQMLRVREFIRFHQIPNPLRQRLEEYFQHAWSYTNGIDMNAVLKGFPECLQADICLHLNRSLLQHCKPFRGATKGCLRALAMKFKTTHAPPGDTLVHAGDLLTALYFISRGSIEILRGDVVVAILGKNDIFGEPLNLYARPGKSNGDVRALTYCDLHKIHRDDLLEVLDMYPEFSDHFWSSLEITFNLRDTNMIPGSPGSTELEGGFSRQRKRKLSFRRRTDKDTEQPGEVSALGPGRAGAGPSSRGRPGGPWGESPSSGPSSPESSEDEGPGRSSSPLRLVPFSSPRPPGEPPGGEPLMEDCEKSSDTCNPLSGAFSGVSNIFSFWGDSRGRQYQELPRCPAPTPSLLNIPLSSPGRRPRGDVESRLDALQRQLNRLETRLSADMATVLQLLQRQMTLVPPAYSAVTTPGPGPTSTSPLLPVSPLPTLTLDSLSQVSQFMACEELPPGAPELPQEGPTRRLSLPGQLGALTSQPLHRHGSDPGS", "test": "hERG inhibitory activity", "assay_type": "biochemical", "conditions": "at the maximal soluble concentration (16 μM)"}, "[5]": {"test": "Tissue distribution study in rats", "assay_type": "in vivo"}, "[6]": {"test": "Excretion of [14C] LIK066-related radioactivity in rats", "assay_type": "in vivo"}, "[7]": {"biological_target": "P-glycoprotein (P-gp) (Homo sapiens, UniProt P08183)", "sequence (P08183 whole entry)": "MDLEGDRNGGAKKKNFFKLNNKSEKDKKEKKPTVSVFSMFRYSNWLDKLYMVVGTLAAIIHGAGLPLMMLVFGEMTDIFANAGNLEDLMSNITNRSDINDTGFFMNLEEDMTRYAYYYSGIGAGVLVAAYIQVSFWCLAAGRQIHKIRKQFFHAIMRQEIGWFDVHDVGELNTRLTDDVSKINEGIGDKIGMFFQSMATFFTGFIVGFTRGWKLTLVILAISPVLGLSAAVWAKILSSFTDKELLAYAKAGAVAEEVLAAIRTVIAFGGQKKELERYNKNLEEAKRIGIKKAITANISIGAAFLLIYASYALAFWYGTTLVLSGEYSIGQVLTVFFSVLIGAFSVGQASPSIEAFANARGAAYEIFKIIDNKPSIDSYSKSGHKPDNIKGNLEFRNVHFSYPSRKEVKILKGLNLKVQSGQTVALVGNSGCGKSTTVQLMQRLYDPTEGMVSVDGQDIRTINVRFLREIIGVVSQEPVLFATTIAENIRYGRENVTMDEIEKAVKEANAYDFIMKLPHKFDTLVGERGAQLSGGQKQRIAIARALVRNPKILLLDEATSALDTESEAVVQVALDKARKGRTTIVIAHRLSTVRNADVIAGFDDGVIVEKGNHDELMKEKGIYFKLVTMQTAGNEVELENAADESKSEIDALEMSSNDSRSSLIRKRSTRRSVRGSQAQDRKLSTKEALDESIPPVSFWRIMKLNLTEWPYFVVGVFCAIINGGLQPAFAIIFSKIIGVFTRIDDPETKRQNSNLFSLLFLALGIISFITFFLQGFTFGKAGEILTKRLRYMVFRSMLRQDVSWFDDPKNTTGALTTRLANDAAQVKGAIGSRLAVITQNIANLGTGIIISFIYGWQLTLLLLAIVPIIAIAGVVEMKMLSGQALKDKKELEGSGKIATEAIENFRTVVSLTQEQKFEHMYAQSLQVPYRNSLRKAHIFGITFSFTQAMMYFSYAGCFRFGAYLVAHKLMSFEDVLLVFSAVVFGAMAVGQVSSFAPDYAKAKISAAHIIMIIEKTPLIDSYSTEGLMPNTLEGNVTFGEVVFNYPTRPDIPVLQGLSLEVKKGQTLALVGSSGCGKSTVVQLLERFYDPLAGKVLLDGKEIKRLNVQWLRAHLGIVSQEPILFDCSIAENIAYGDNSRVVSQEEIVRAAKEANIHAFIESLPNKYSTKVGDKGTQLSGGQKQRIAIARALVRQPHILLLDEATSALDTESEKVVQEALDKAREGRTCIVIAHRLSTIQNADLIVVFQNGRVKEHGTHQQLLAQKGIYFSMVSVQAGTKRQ", "test": "P-glycoprotein substrate assessment", "assay_type": "in vitro ADME"}, "[8]": {"test": "Solubility", "assay_type": "physicochemical"}, "[9]": {"test": "Permeability", "assay_type": "in vitro ADME"}, "[10]": {"system": "human hepatocytes", "test": "Clearance pathways in human hepatocytes", "assay_type": "in vitro ADME"}, "[11]": {"test": "In vitro pharmacokinetic drug interaction studies", "assay_type": "in vitro ADME"}, "[12]": {"test": "Dog pharmacokinetics, tablet vs solution, crossover", "assay_type": "in vivo", "conditions": "single dose of 50 mg/dog, dogs"}, "[13]": {"test": "Oral toxicity studies in dogs", "assay_type": "in vivo"}, "[14]": {"test": "Single and multiple dose studies in healthy volunteers and T2DM patients", "assay_type": "in vivo, human"}, "[15]": {"test": "12 week study in obese patients", "assay_type": "in vivo, human"}, "[16]": {"test": "Dose/exposure-response analysis from completed clinical studies", "assay_type": "in vivo, human", "protocol": "The primary efficacy endpoint for dose/exposure-response analysis for LIK066, from previously completed clinical studies, was body weight loss, and other pharmacodynamic endpoints such as urinary and plasma glucose. The estimated ED50 and ED90 of LIK066 based on once a day dosing were approximately 5 mg and 50 mg, respectively, based on a body weight loss model. The estimated ED50 and ED90 based on other relevant pharmacodynamics endpoints such as urinary and plasma glucose were approximately 3-10 mg and 30-100 mg, respectively. […] Therefore this dose is tested first, with introduction of the 30 mg dose later to assure futility evaluation prior to enrollment of the entire cohort for the study. […] The diarrhea associated with LIK066 could be mitigated by dietary modification such as reduction in carbohydrate intake. Body weight loss is an important factor in therapeutic development for NASH as weight loss through either bariatric surgery or life style modification deters progression of the disease."}, "[17]": {"test": "Clinical pharmacokinetics", "conditions": "human, in vivo; read-out: pharmacokinetic elimination half-life"}, "[18]": {"conditions": "rat, in vivo"}, "[19]": {"test": "Oral toxicity studies in rats"}, "[20]": {"conditions": "once a day dosing, body weight loss model"}, "[21]": {"conditions": "urinary and plasma glucose endpoints"}}, "note": "Like-named read-outs stand apart in the source and are kept apart here.", "data": [{"compound": "CCc1ccc([C@@H]2O[C@H](CO)[C@@H](O)[C@H](O)[C@H]2O)cc1Cc1ccc2c(c1)OCCO2", "note": "[LIK066, (2S,3R,4R,5S,6R)-2-(3-((2,3-dihydrobenzo[b][1,4]dioxin-6-yl)methyl)-4-ethylphenyl)-6-(hydroxymethyl)tetrahydro-2H-pyran-3,4,5-triol]", "values": [{"measurement": "inhibition of SGLT2", "setting": "[1]", "value": "potent inhibitor"}, {"measurement": "inhibition of SGLT1", "setting": "[2]", "value": "potent inhibitor"}, {"measurement": "selectivity against other glucose transporters (GLUTs)", "setting": "[3]", "value": "high selectivity"}, {"measurement": "inhibitory hERG activity", "setting": "[4]", "value": "no significant inhibitory hERG activity"}, {"measurement": "distribution to the central nervous system and reproductive organs", "setting": "[5]", "value": "relatively low distribution"}, {"measurement": "excretion of [14C] LIK066-related radioactivity", "setting": "[6]", "value": "excreted in both urine and feces, mainly as metabolites"}, {"measurement": "P-glycoprotein (P-gp) substrate", "setting": "[7]", "value": "is a substrate"}, {"measurement": "solubility", "setting": "[8]", "value": "good solubility"}, {"measurement": "permeability", "setting": "[9]", "value": "good permeability"}, {"measurement": "predominant clearance pathway", "setting": "[10]", "value": "Direct glucuronidation (via the UDP-glucuronosyl transferase (UGT1A9))"}, {"measurement": "second clearance pathway (followed by)", "setting": "[10]", "value": "oxidative metabolism (CYP3A4)"}, {"measurement": "potential to act as a perpetrator of pharmacokinetic drug interactions", "setting": "[11]", "value": "low potential"}, {"measurement": "pharmacokinetics, tablet vs solution formulations", "setting": "[12]", "value": "comparable"}, {"measurement": "NOAEL", "setting": "[13]; dog, in vivo, oral, read-out: no observed adverse effect level (NOAEL)", "value": 0.5, "unit": "mg/kg/day"}, {"measurement": "body weight gain", "setting": "[13]; dogs, at almost all doses", "value": "reduced body weight gain"}, {"measurement": "doses not tolerated", "setting": "[13]; dogs, prolonged periods (≥6 weeks), body weight loss, fecal changes and dehydration", "value": "≥ 10", "unit": "mg/kg"}, {"measurement": "principal target organs of toxicity", "setting": "[13]; oral, dogs, up to 13-weeks", "value": "gastrointestinal tract, kidney, urinary tract, bone, liver and adrenal glands"}, {"measurement": "safety and tolerability", "setting": "[14]; healthy volunteers and patients with T2DM", "value": "safe and tolerated"}, {"measurement": "pharmacokinetic profile", "setting": "[14]; human, in vivo", "value": "favorable"}, {"measurement": "placebo-adjusted weight loss", "setting": "[14]; over 2 weeks, healthy subjects and patients with T2DM", "value": "up to 3%"}, {"measurement": "glucose AUC after an oral glucose tolerance test (OGTT)", "setting": "[14]; patients with T2DM", "value": "significantly lowered"}, {"measurement": "glucosuria", "setting": "[14]; single and multiple doses, healthy volunteers and patients with T2DM", "value": "induced glucosuria"}, {"measurement": "weight loss", "setting": "[15]; 150 mg daily dose (qd, b.i.d or tid), obese patients, 12 week treatment", "value": "~6", "unit": "%"}, {"measurement": "weight loss", "setting": "[15]; 150 mg dose, previous phase 2 study", "value": "significant weight loss"}, {"measurement": "dose-limiting toxicity / primary AE", "setting": "[15]; 150 mg qd, twelve weeks", "value": "diarrhea"}, {"measurement": "safety and tolerability", "setting": "[15]; 150 mg qd, twelve weeks, normoglycemic and dysglycemic subjects / obese patients", "value": "generally safe and well tolerated"}, {"measurement": "estimated ED50", "setting": "[16]; [20]", "value": "approximately 5 mg"}, {"measurement": "estimated ED90", "setting": "[16]; [20]", "value": "~50", "unit": "mg"}, {"measurement": "estimated ED50", "setting": "[16]; [21]", "value": "3 to 10", "unit": "mg"}, {"measurement": "estimated ED90", "setting": "[16]; [21]", "value": "30 to 100", "unit": "mg"}, {"measurement": "half-life", "setting": "[17]", "value": "10 to 16", "unit": "h"}, {"measurement": "tolerated dose", "setting": "[18]; 4 weeks", "value": "up to 100 mg/kg"}, {"measurement": "tolerated dose", "setting": "[18]; 26 weeks", "value": "up to 30 mg/kg"}, {"measurement": "principal target organs of toxicity", "setting": "[19]; oral, rats, up to 26-weeks", "value": "gastrointestinal tract, kidney, urinary tract, bone, liver and adrenal glands"}, {"measurement": "NOAEL", "setting": "[19]; rat, in vivo, oral", "value": 5, "unit": "mg/kg/day"}, {"measurement": "body weight gain", "setting": "[19]; rats, at almost all doses", "value": "reduced body weight gain"}]}]}
